From paper PMC5007854, “β-Nitrostyrenes as Potential Anti-leishmanial Agents” (Frontiers in Microbiology, 2016)
Values after ≈ are worked out from the molar mass of the structure shown.

Columns and labels:
[1] = test system: Staphylococcus epidermidis ATCC 14990; assay: Broth microdilution antibacterial susceptibility (MIC/MBC); format: cell-based; details: Staphylococcus epidermidis; for MIC: ATCC14990, 24 h, broth microdilution, 35°C, 24 h, read-out: MIC, Se ATCC 14990; for MBC: ATCC14990, ≥99.9% reduction of original inoculum, read-out: MBC, Se ATCC 14990
Description: (§1) One reference each of the following species was used for their in vitro susceptibility to β-nitrostyrene in this study: Staphylococcus aureus ATCC 29213, Staphylococcus epidermidis ATCC 14990, Escherichia coli ATCC 25922, Pseudomonas aeruginosa ATCC 27853, Candida albicans ATCC 90028, Candida glabrata ATCC 90030, Aspergillus fumigatus ATCC 16424 and Aspergillus niger ATCC 16404. These strains were procured from the American Type Culture Collection (ATCC, Manassas, VA, USA).
(§2) The antibacterial and antifungal activities of the β-nitrostyrenes were performed by broth microdilution methods as per the guidelines of Clinical and Laboratory Standard Institute (Wayne, [1998], [2008a],[b],[c]) by using Mueller-Hinton broth (MHB; Becton-Dickinson, Cockeysville, MD, USA) supplemented with calcium (25 mg/L) and magnesium (12.5 mg/L) for bacterial strains while as RPMI 1640 medium with L-glutamine and without sodium bicarbonate, buffered to pH 7.0 with 0.165 M 3-(N-morpholino) propanesulfonic acid (MOPS; both from Sigma) was used for fungal strains. Stock solutions were prepared in 100% dimethyl sulfoxide (DMSO; Sigma; distilled water was used for ciprofloxacin), with a final DMSO concentration of 1% (vol. per vol.) and two-fold serial dilutions were prepared in media in amounts of 100 μL per well in 96-well U-bottom microtiter plates (Tarsons, Kolkata, India) to yield twice the final concentration required for testing, which ranged from 64 to 0.12 μg/mL for β-nitrostyrenes and 16 to 0.03 μg/mL for ciprofloxacin as well as amphotericin B. Stock inoculum suspensions of the bacteria, Candida species and Aspergillus species were prepared in sterile normal saline (0.85%) containing 0.05% polysorbate 20 (NST) from overnight (3 to 5-day old for Aspergillus species) strains grown on Trypticase soy agar (TSA; Becton-Dickinson) and potato dextrose agar (Difco Laboratories, Detroit, MI, USA) respectively at 35°C. Inocula were verified for each assay by plating onto agar plates for colony enumeration. These suspensions were further diluted in the respective test medium and a 100 μl volume of this diluted inoculum was added to each well of the plate, resulting in a final inoculum concentration of approximately 5 × 10^5 CFU/mL for bacter1ia, (Wayne, [2008a]) approximately 2.5 × 10^4 CFU/ml for Candida species (Pfaller et al., [2004]) while as 0.4 × 10^4 to 5 × 10^4 CFU/mL for Aspergillus species (Wayne, [2008c]). Untreated growth control, vehicle control (DMSO) and sterility control wells were included for each isolate tested. Ciprofloxacin and amphotericin B served as the standard drug controls for bacterial and fungal strains, respectively. The microtiter plates were incubated at 35°C for 24 h for bacterial strains and 48 h for fungal strains. The plates were read visually and the minimum inhibitory concentration (MIC) was defined as the lowest concentration of test sample that prevented visible growth with respect to the growth control.
(§3) The minimum bactericidal concentration (MBC) and minimum fungicidal concentration (MFC) were determined by plating 100 μl volumes on agar plates from the wells showing no visible growth (clear MIC well). The plates were incubated as described above in MIC measurements. […] All experiments were conducted twice in duplicates on separate occasions with freshly prepared inoculums and stock solutions.

[2] = test system: Staphylococcus aureus ATCC 29213; assay: as above; format: cell-based; details: Staphylococcus aureus; for MIC: ATCC29213, 24 h, broth microdilution, 35°C, 24 h, read-out: MIC, Sa ATCC 29213; for MBC: ATCC29213, ≥99.9% reduction of original inoculum, read-out: MBC, Sa ATCC 29213
Description: as §1, §2, §3

[3] = test system: Escherichia coli ATCC 25922; assay: as above; format: cell-based; details: Escherichia coli; for MIC: ATCC25922, 24 h, broth microdilution, 35°C, 24 h, read-out: MIC, Ec ATCC 25922; for MBC: ATCC25922, ≥99.9% reduction of original inoculum, read-out: MBC, Ec ATCC 25922
Description: as §1, §2, §3

[4] = test system: Pseudomonas aeruginosa ATCC 27853; assay: as above; format: cell-based; details: Pseudomonas aeruginosa; for MIC: ATCC27853, 24 h, broth microdilution, 35°C, 24 h, read-out: MIC, Pa ATCC 27853; for MBC: ATCC27853, ≥99.9% reduction of original inoculum, read-out: MBC, Pa ATCC 27853
Description: as §1, §2, §3

[5] = test system: Candida glabrata ATCC 90030; assay: Broth microdilution antifungal susceptibility (MIC/MFC); format: cell-based; details: Nakaseomyces glabratus; for MIC: ATCC90030, 48 h, broth microdilution, 35°C, 48 h, read-out: MIC, Cg ATCC 90030; for MFC: ATCC90030, ≥99.9% reduction of original inoculum, read-out: MFC, Cg ATCC 90030
Description: as §1, §2, §3

[6] = test system: Aspergillus fumigatus ATCC 16424; assay: as above; format: cell-based; details: Aspergillus fumigatus; for MIC: ATCC16424, 48 h, broth microdilution, 35°C, 48 h, read-out: MIC, Af ATCC 16424; for MFC: ATCC16424, ≥99.9% reduction of original inoculum, read-out: MFC, Af ATCC 16424
Description: as §1, §2, §3

[7] = test system: Aspergillus niger ATCC 16404; assay: as above; format: cell-based; details: Aspergillus niger; for MIC: ATCC16404, 48 h, broth microdilution, 35°C, 48 h, read-out: MIC, An ATCC 16404; for MFC: ATCC16404, ≥99.9% reduction of original inoculum, read-out: MFC, An ATCC 16404
Description: as §1, §2, §3

[8] = test system: Candida albicans ATCC 90028; assay: as above; format: cell-based; details: Candida albicans; for MIC: ATCC90028, 48 h, broth microdilution, 35°C, 48 h, read-out: MIC, Ca ATCC 90028; for MFC: ATCC90028, ≥99.9% reduction of original inoculum, read-out: MFC, Ca ATCC 90028
Description: as §1, §2, §3

[9] = test system: L. donovani promastigotes; assay: Anti-leishmanial screening at 100 μM, parasite viability by microscopy; format: cell-based, Leishmania donovani; details: L. donovani promastigotes
Experimental: L. donovani parasites (MHOM/IN/83/AG83) were maintained in vivo in BALB/c mice. Promastigotes were routinely cultured at 22°C in medium M199 supplemented with 10% heat inactivated fetal bovine serum (FBS, HiMedia Laboratories, Mumbai, India), penicillin 100 (IU/ml), streptomycin (100 μg/ml). Log phase promastigotes were sub-cultured every 72–96 h, the inoculum being 2 × 10^6 cells/ml (Afrin et al., [2002]).
Nitrostyrine series were screened for their antileishmanial activity against L. donovani promastigotes in vitro. Promastigotes of L. donovani (2 × 10^6 cells/mL) in M199 medium were incubated at 22°C for 72 h with each compound at a concentration of 100 μM. Amphotericin B (AmB) served as reference drug, 0.2% DMSO was used as solvent control. Parasites with media alone were taken as control. Parasite viability was determined microscopically after 72 h (Islamuddin et al., [2014b]).

Compound | melting point [°C] | MIC [1] [µg/mL] | MBC [1] [µg/mL] | MIC [2] [µg/mL] | MBC [2] [µg/mL] | MIC [3] [µg/mL] | MBC [3] [µg/mL] | MIC [4] [µg/mL] | MBC [4] [µg/mL] | MIC [5] [µg/mL] | MFC [5] [µg/mL] | MIC [6] [µg/mL] | MFC [6] [µg/mL] | MIC [7] [µg/mL] | MFC [7] [µg/mL] | MIC [8] [µg/mL] | MFC [8] [µg/mL] | Anti-leishmanial activity, in words (SAR discussion) [9]
C/C(=C\c1c[nH]c2ccccc12)[N+](=O)[O-] [Compound 29, 3-((E)-2-nitroprop-1-enyl)-1H-indole] | 182 to 184 | 8 (≈ 39.6 µM) | 8 (≈ 39.6 µM) | 16 (≈ 79.1 µM) | 16 (≈ 79.1 µM) | > 64 | > 64 | > 64 | > 64 | 8 (≈ 39.6 µM) | 8 (≈ 39.6 µM) | 16 (≈ 79.1 µM) | 16 (≈ 79.1 µM) | 8 (≈ 39.6 µM) | 8 (≈ 39.6 µM) | 64 (≈ 316 µM) | 64 (≈ 316 µM) | –
CC/C(=C\c1c[nH]c2ccccc12)[N+](=O)[O-] [Compound 30, 3-((E)-2-nitrobut-1-enyl)-1H-indole] | 64 to 66 | 8 (≈ 37 µM) | 8 (≈ 37 µM) | 16 (≈ 74 µM) | 16 (≈ 74 µM) | 64 (≈ 296 µM) | > 64 | > 64 | > 64 | 32 (≈ 148 µM) | 64 (≈ 296 µM) | 64 (≈ 296 µM) | 64 (≈ 296 µM) | 32 (≈ 148 µM) | 32 (≈ 148 µM) | > 64 | > 64 | –
CC/C(=C\c1ccc(OC)c(OC)c1)[N+](=O)[O-] [Compound 24, 1,2-dimethoxy-4-((E)-2-nitrobut-1-enyl) benzene] | 78 to 80 | – | – | – | – | – | – | – | – | – | – | – | – | – | – | – | – | inactive
